Measurements: article PMC4511920 (Molecular cancer research : MCR, 2015)
pIC50: −log10 of the molar value.

What was measured:
[1] = tested on: DYRK1B; conditions: Target DYRK1B; NCGC compounds; cited from earlier work
[2] = tested on: endogenous NKX3.1 in LNCaP cells; assay: Endogenous NKX3.1 half-life in LNCaP cells exposed to cycloheximide, immunoblot; assay type: cell-based, human
[3] = molecular target: DYRK and CLK family kinases; conditions: cited from earlier work

Row | Effect on NKX3.1 half-life / degradation (in words) [2] | Structure (SMILES) | pIC50 [1] | Kinase specificity (in words) [3]
1 |  | c1coc(CCNc2ncnc3ccc(-c4ccc5c(c4)OCO5)cc23)c1 [NCGC00185976] | 6.99 | 
2 |  | Cc1nc(CNc2ncnc3ccc(-c4ccc5c(c4)OCO5)cc23)cs1 [NCGC00185963] | 5.82 | 
3 | most active compound | Cc1nc(CN(C)c2ncnc3ccc(-c4ccc5c(c4)OCO5)cc23)cs1 [NCGC00185981] | 7.60 | specificity against both DYRK and CLK family kinases
4 |  | CN(Cc1cccs1)c1ncnc2ccc(-c3ccc4c(c3)OCO4)cc12 [NCGC00185984] | 7.14 | no specificity for CLK kinases
